This assay deals with NLRP3. The experiment in a line: IL-1β secretion assay in PMA-differentiated, LPS/nigericin-stimulated THP-1 cells (384-well, ELISA read-out). The format is cell-based, human. The settings on record: Homo sapiens. The procedure, abridged:
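THP-1 cells differentiated with PMA (5 ng/mL, 40 h), primed in serum-free medium with 25 ng/mL LPS for 2 h, treated with compounds 1 h (0.5% DMSO), then stimulated with nigericin for 2 h at 37 °C. Supernatant IL-1β measured by ELISA; responses normalized to LPS+5 μM nigericin and LPS-only controls.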
In general terms: An ELISA detects its analyte on a solid surface through an enzyme-linked reagent.

The mark [1] stands for this setting: THP-1, IL-1β secretion, PMA-differentiated THP-1 cells, LPS then nigericin stimulation, ELISA read at 450 nm, read-out: Activity.
Where [2] appears, read: THP-1, Table 4, IL-1β secretion, LPS/nigericin-stimulated THP-1 cells, read-out: IC50.

Read-outs that look alike come from different tables or passages of the source.

In the case of `CC1CN(CC(=O)Nc2ncccn2)C(=O)c2ccc(Br)cc21` (stereo not shown) [Example 74, 2-(6-bromo-4-methyl-1-oxo-3,4-dihydroisoquinolin-2-yl)-N-pyrimidin-2-yl-acetamide], the IC50 reads like this: under setting [1], < 10 µM; under setting [2], 1.76 µM.

Turning to `O=C(CN1CC2(CCCC2)c2cc(Br)ccc2C1=O)Nc1ncccn1` [Example 75, 2-(6-bromo-1-oxo-spiro[3H-isoquinoline-4,1′-cyclopentane]-2-yl)-N-pyrimidin-2-yl-acetamide], the IC50 under setting [1] lay in the range of 10 to 15 µM and the IC50 under setting [2] was 12.3 µM.

For `CC1N(CC(=O)Nc2ncccn2)C(=O)c2ccc(C(F)(F)F)cc2C12CC2` (stereo not shown) [Example 76, 2-[3-methyl-1-oxo-6-(trifluoromethyl)spiro[3H-isoquinoline-4,1′-cyclopropane]-2-yl]-N-pyrimidin-2-ylacetamide], the IC50 was > 15 µM under setting [1] and 16.2 µM under setting [2].

Turning to `O=C1c2ccc(Br)cc2C2(CC2)CN1C1(C(=O)Nc2ncccn2)CC1` [Example 77, 1-(6-bromo-1-oxospiro[3H-isoquinoline-4,1′-cyclopropane]-2-yl)-N-pyrimidin-2-ylcyclopropane-1-carboxamide], the IC50 is < 10 µM under setting [1] and 3.72 µM under setting [2].

Take `O=C(CN1C[C@]2(C[C@H]2F)c2cc(Br)ccc2C1=O)Nc1ncc(F)cn1` [Example 79, 2-[(2′R,4S)-6-bromo-2′-fluoro-1-oxospiro[3H-isoquinoline-4,1′-cyclopropane]-2-yl]-N-(5-fluoropyrimidin-2-yl)acetamide]: the IC50 is, setting by setting: under setting [1], < 10 µM; under setting [2], 0.015 µM.

For the compound `O=C(CN1CC2(CC23CC3)c2cc(Br)ccc2C1=O)Nc1ncc(F)cn1` (stereo not shown) [Example 81, N-(5-fluoropyrimidin-2-yl)-2-(6-bromo-1-oxospiro[3H-isoquinoline-4,1′-(spiro[2.2]pentan-1-yl)]-2-yl)acetamide], the IC50 by setting is: under setting [1], < 10 µM; under setting [2], 2.56 µM.

In the case of `O=C(CN1CC2(CC2)c2cc(OCF)ccc2C1=O)Nc1ncccn1` [Example 82, 2-[6-(fluoromethoxy)-1-oxospiro[3H-isoquinoline-4,1′-cyclopropane]-2-yl]-N-pyrimidin-2-ylacetamide], the IC50 is, setting by setting: under setting [1], < 10 µM; under setting [2], 2.22 µM.

On to `O=C(CN1CC2(CC2)c2c(ccc(Br)c2Cl)C1=O)Nc1ncc(F)cn1` [Example 83, 2-(6-bromo-5-chloro-1-oxospiro[3H-isoquinoline-4,1′-cyclopropane]-2-yl)-N-(5-fluoropyrimidin-2-yl)acetamide], for which the IC50 runs as follows: under setting [1], < 10 µM; under setting [2], 0.521 µM.

As to `O=C(CN1CC2(CC2)c2cc(C(F)(F)F)c(F)cc2C1=O)Nc1ncc(F)cn1` [Example 84, 2-[7-fluoro-1-oxo-6-(trifluoromethyl)spiro[3H-isoquinoline-4,1′-cyclopropane]-2-yl]-N-(5-fluoropyrimidin-2-yl)acetamide], the IC50 reads like this: under setting [1], < 10 µM; under setting [2], 5.98 µM.

Regarding `N#Cc1cnc(NC(=O)CN2CC3(CC3)c3cc(C(F)(F)F)ccc3C2=O)c(F)c1` [Example 85, N-(5-cyano-3-fluoropyridin-2-yl)-2-[1-oxo-6-(trifluoromethyl)spiro[3H-isoquinoline-4,1′-cyclopropane]-2-yl]acetamide], the IC50 was < 10 µM under setting [1] and 0.992 µM under setting [2].

For the compound `O=C(CN1C[C@@]2(C[C@@H]2C(F)(F)F)c2cc(Br)ccc2C1=O)Nc1ncc(F)cn1` [Example 86, 2-[(2′s,4r)-6-bromo-1-oxo-2′-(trifluoromethyl)spiro[3H-isoquinoline-4,1′-cyclopropane]-2-yl]-N-(5-fluoropyrimidin-2-yl)acetamide], the IC50 is < 10 µM under setting [1] and 2.81 µM under setting [2].

Turning to `O=C(CN1CC2(CC2)c2cc(C3CCC3)ccc2C1=O)Nc1ncc(F)cn1` [Example 87, 2-(6-cyclobutyl-1-oxospiro[3H-isoquinoline-4,1′-cyclopropane]-2-yl)-N-(5-fluoropyrimidin-2-yl)acetamide], the IC50 reads like this: under setting [1], < 10 µM; under setting [2], 5.39 µM.

Consider `O=C(CN1CC2(CC2)c2cc(C3CC3(F)F)ccc2C1=O)Nc1ncc(F)cn1` (stereo not shown) [Example 88, 2-[6-(2,2-difluorocyclopropyl)-1-oxo-spiro[3H-isoquinoline-4,1′-cyclopropane]-2-yl]-N-(5-fluoropyrimidin-2-yl)acetamide], for which the IC50 runs as follows: under setting [1], < 10 µM; under setting [2], 3.61 µM.

Regarding `N#Cc1c(C(F)(F)F)ccc2c1C1(CC1)CN(CC(=O)Nc1ncc(F)cn1)C2=O` [Example 89, 2-[5-cyano-1-oxo-6-(trifluoromethyl)spiro[3H-isoquinoline-4,1′-cyclopropane]-2-yl]-N-(5-fluoropyrimidin-2-yl)acetamide], the IC50 reads like this: under setting [1], < 10 µM; under setting [2], 6.84 µM.

In the case of `O=C(CN1CC2(CC2)c2cc(I)ccc2C1=O)Nc1ncc(F)cn1` [Example 90, N-(5-fluoropyrimidin-2-yl)-2-(6-iodo-1-oxospiro[3H-isoquinoline-4,1′-cyclopropane]-2-yl)acetamide], the IC50 runs as follows: under setting [1], < 10 µM; under setting [2], 0.034 µM.

With `COc1ccc2c(c1)C1(CC1)CN(CC(=O)Nc1ncccn1)C2=O` [Example 91, 2-(6-methoxy-1-oxospiro[3H-isoquinoline-4,1′-cyclopropane]-2-yl)-N-pyrimidin-2-ylacetamide], the IC50 is < 10 µM under setting [1] and 3.21 µM under setting [2].

Turning to `O=C(CN1CC2(COC2)c2cc(Br)ccc2C1=O)Nc1ncccn1` [Example 92, 2-(6-bromo-1-oxospiro[3H-isoquinoline-4,3′-oxetane]-2-yl)-N-pyrimidin-2-ylacetamide], the IC50 reads like this: under setting [1], < 10 µM; under setting [2], 4.46 µM.

With `N#CC1(c2ccc3c(c2)C2(CC2)CN(CC(=O)Nc2ncc(F)cn2)C3=O)CC1` [Example 93, 2-[6-(1-cyanocyclopropyl)-1-oxospiro[3H-isoquinoline-4,1′-cyclopropane]-2-yl]-N-(5-fluoropyrimidin-2-yl)acetamide], the IC50 is, setting by setting: under setting [1], < 10 µM; under setting [2], 2.28 µM.

For `O=C(CN1CC2(CC2)c2cc(Cl)ccc2C1=O)Nc1ncc(F)cn1` [Example 94, 2-(6-chloro-1-oxospiro[3H-isoquinoline-4,1′-cyclopropane]-2-yl)-N-(5-fluoropyrimidin-2-yl)acetamide], the IC50 under setting [1] is < 10 µM and the IC50 under setting [2] was 0.369 µM.

Consider `O=C(CN1CC(C(F)F)c2cc(Br)ccc2C1=O)Nc1ncc(F)cn1` (stereo not shown) [Example 95, 2-[6-bromo-4-(difluoromethyl)-1-oxo-3,4-dihydroisoquinolin-2-yl]-N-(5-fluoropyrimidin-2-yl)acetamide], for which the IC50 under setting [1] was < 10 µM and the IC50 under setting [2] was determined as 0.32 µM.

For `O=C(CN1CC2(CC2)c2cc(C(F)F)ccc2C1=O)Nc1ncc(F)cn1` [Example 96, 2-[6-(difluoromethyl)-1-oxospiro[3H-isoquinoline-4,1′-cyclopropane]-2-yl]-N-(5-fluoropyrimidin-2-yl)acetamide], the IC50 reads like this: under setting [1], < 10 µM; under setting [2], 1.33 µM.

Consider `CC1(c2ccc3c(c2)C2(CC2)CN(CC(=O)Nc2ncc(F)cn2)C3=O)CC1` [Example 97, N-(5-fluoropyrimidin-2-yl)-2-[6-(1-methylcyclopropyl)-1-oxospiro[3H-isoquinoline-4,1′-cyclopropane]-2-yl]acetamide], for which the IC50 is < 10 µM under setting [1] and 1.22 µM under setting [2].

For the compound `O=C(CN1CC2(CC2)c2c(ccc(Cl)c2F)C1=O)Nc1ncc(F)cn1` [Example 98, 2-(6-chloro-5-fluoro-1-oxospiro[3H-isoquinoline-4,1′-cyclopropane]-2-yl)-N-(5-fluoropyrimidin-2-yl)acetamide], the IC50 reads like this: under setting [1], < 10 µM; under setting [2], 0.349 µM.

As to `O=C(CN1CC2(CC2)c2cc(Br)c(F)cc2C1=O)Nc1ncc(F)cn1` [Example 99, 2-(6-bromo-7-fluoro-1-oxospiro[3H-isoquinoline-4,1′-cyclopropane]-2-yl)-N-(5-fluoropyrimidin-2-yl)acetamide], the IC50 runs as follows: under setting [1], < 10 µM; under setting [2], 0.598 µM.

Consider `O=C(CN1CC2(CC2)c2c(ccc(C3CC3)c2F)C1=O)Nc1ncc(F)cn1` [Example 100, 2-(6-cyclopropyl-5-fluoro-1-oxospiro[3H-isoquinoline-4,1′-cyclopropane]-2-yl)-N-(5-fluoropyrimidin-2-yl)acetamide], for which the IC50 runs as follows: under setting [1], < 10 µM; under setting [2], 0.114 µM.

In the case of `CC(F)(F)c1ccc2c(c1)C1(CC1)CN(CC(=O)Nc1ncc(F)cn1)C2=O` [Example 101, 2-[6-(1,1-difluoroethyl)-1-oxospiro[3H-isoquinoline-4,1′-cyclopropane]-2-yl]-N-(5-fluoropyrimidin-2-yl)acetamide], the IC50 reads like this: under setting [1], < 10 µM; under setting [2], 0.672 µM.

As to `O=C(CN1CC2(CC2)c2cc(Br)ccc2C1=S)Nc1ncc(F)cn1` [Example 102, 2-(6-bromo-1-sulfanylidenespiro[3H-isoquinoline-4,1′-cyclopropane]-2-yl)-N-(5-fluoropyrimidin-2-yl)acetamide], the IC50 runs as follows: under setting [1], < 10 µM; under setting [2], 0.169 µM.

For the compound `O=C(CN1CC2(CC2)c2cc(Br)ccc2C1=O)Nc1ncc(-c2ccccn2)cn1` [Example 104, 2-(6-bromo-1-oxospiro[3H-isoquinoline-4,1′-cyclopropane]-2-yl)-N-(5-pyridin-2-ylpyrimidin-2-yl)acetamide], the IC50 under setting [1] was < 10 µM and the IC50 under setting [2] amounted to 1.87 µM.

Turning to `N#Cc1cnc(NC(=O)CN2CC3(CC3)c3c(ccc(Br)c3F)C2=O)nc1` [Example 105, 2-(6-bromo-5-fluoro-1-oxospiro[3H-isoquinoline-4,1′-cyclopropane]-2-yl)-N-(5-cyanopyrimidin-2-yl)acetamide], the IC50 was < 10 µM under setting [1] and 0.119 µM under setting [2].

The record behind these values is US20230416205A1, “COMPOUNDS, COMPOSITIONS, AND METHODS” (Denali Therapeutics Inc, priority 2020, published 2023).
